Data published in ChEMBL document CHEMBL5260856, “Design, synthesis and biological evaluation of pyrazolo[3,4-b]pyridine derivatives as TRK inhibitors” (RSC Med Chem, 2023).
Blank lines part the entries; values can stand above or below the molecule they belong to.

Columns and labels:
[1] = target: High affinity nerve growth factor receptor (Homo sapiens, UniProt P04629); assay: Inhibition of TRKA (unknown origin) using TK as substrate in presence of ATP incubated for 30 mins by HTRF KinEASE assay
[2] = target: T1, Serine/threonine-protein kinase PLK4 (Homo sapiens, UniProt O00444); assay: Inhibition of PLK4 (unknown origin)
T1 sequence (O00444 whole entry): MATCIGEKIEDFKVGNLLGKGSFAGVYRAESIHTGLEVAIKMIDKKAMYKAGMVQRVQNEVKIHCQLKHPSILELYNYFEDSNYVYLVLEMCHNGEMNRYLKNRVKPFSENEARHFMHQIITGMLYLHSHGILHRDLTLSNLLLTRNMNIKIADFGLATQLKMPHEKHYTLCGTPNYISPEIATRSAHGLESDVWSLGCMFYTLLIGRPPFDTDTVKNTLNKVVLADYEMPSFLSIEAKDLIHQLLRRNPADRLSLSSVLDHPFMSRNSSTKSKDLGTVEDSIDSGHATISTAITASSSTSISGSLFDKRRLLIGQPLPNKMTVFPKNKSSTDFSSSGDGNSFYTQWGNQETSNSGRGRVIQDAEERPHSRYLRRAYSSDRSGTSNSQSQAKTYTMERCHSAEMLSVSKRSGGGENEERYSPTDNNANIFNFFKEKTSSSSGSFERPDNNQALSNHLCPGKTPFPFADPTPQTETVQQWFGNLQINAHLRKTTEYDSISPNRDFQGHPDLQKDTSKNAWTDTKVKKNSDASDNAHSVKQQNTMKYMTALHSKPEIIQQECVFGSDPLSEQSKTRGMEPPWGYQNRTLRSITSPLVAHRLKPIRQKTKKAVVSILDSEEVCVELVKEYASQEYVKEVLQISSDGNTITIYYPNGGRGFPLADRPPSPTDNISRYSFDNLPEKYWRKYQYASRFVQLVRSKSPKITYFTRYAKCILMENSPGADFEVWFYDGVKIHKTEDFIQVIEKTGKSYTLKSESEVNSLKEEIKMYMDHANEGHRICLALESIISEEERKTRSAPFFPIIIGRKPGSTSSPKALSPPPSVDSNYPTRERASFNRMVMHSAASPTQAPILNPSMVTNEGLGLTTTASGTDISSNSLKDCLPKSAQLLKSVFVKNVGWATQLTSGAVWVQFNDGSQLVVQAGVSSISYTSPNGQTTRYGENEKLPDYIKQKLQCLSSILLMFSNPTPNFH

[3] = target: Serine/threonine-protein kinase PAK 4 (Homo sapiens, UniProt O96013); assay: Inhibition of PAK4 (unknown origin)
Focal adhesion kinase 1 = Focal adhesion kinase 1 (Homo sapiens, UniProt Q05397); assay: Inhibition of FAK (unknown origin)
[4] = Inhibition of tyrosine kinase (unknown origin); parameters: species or system Homo sapiens
KM12 = assay: Antiproliferative activity against human KM12 cells assessed as cell growth inhibition incubated for 72 hrs by CCK-8 assay; type: functional, cell-based; conditions: KM12, 72 h
MCF7 = assay: Antiproliferative activity against human MCF7 cells assessed as cell growth inhibition incubated for 72 hrs by CCK-8 assay; type: functional, cell-based; conditions: MCF7, 72 h
[5] = Stability in human plasma assessed as parent compound remaining at 100 uM and measured after 30 mins by LC-MS/MS analysis; type: ADME, cell-free; conditions: read-out: Stability
CYP3A4 = CYP3A4 (Homo sapiens, UniProt P08684); assay: Inhibition of CYP3A4 in human liver microsomes using midazolam as substrate at 10 uM preincubated for 10 mins followed by NADPH addition and measured after 15 mins by LC-MS/MS analysis; type: ADME, Microsome; conditions: probe midazolam, time 25 min
[6] = Stability in human plasma assessed as half life at 100 uM and measured after 120 mins by LC-MS/MS analysis; type: ADME, cell-free
[7] = Stability in human plasma assessed as parent compound remaining at 100 uM and measured after 10 mins by LC-MS/MS analysis; type: ADME, cell-free; conditions: read-out: Stability
CYP2C9 = CYP2C9 (Homo sapiens, UniProt P11712); assay: Inhibition of CYP2C9 in human liver microsomes using diclofenac as substrate at 10 uM preincubated for 10 mins followed by NADPH addition and measured after 15 mins by LC-MS/MS analysis; type: ADME, Microsome; conditions: probe diclofenac, time 25 min
[8] = Stability in human plasma assessed as parent compound remaining at 100 uM and measured after 60 mins by LC-MS/MS analysis; type: ADME, cell-free; conditions: read-out: Stability
CYP2D6 = CYP2D6 (Homo sapiens, UniProt P10635); assay: Inhibition of CYP2D6 in human liver microsomes using dextromethorphan as substrate at 10 uM preincubated for 10 mins followed by NADPH addition and measured after 15 mins by LC-MS/MS analysis; type: ADME, Microsome; conditions: probe dextromethorphan, time 25 min
CYP2C19 = CYP2C19 (Homo sapiens, UniProt P33261); assay: Inhibition of CYP2C19 in human liver microsomes using S-mephenytoin as substrate at 10 uM preincubated for 10 mins followed by NADPH addition and measured after 15 mins by LC-MS/MS analysis; type: ADME, Microsome; conditions: probe S-mephenytoin, time 25 min
[9] = Stability in human plasma assessed as parent compound remaining at 100 uM and measured after 0 mins by LC-MS/MS analysis; type: ADME, cell-free; conditions: read-out: Stability
CYP1A2 = target: T2, CYP1A2 (Homo sapiens, UniProt P05177); assay: Inhibition of CYP1A2 in human liver microsomes using phenacetin as substrate at 10 uM preincubated for 10 mins followed by NADPH addition and measured after 15 mins by LC-MS/MS analysis; type: ADME, Microsome; conditions: probe phenacetin, time 25 min
T2 sequence (P05177 whole entry): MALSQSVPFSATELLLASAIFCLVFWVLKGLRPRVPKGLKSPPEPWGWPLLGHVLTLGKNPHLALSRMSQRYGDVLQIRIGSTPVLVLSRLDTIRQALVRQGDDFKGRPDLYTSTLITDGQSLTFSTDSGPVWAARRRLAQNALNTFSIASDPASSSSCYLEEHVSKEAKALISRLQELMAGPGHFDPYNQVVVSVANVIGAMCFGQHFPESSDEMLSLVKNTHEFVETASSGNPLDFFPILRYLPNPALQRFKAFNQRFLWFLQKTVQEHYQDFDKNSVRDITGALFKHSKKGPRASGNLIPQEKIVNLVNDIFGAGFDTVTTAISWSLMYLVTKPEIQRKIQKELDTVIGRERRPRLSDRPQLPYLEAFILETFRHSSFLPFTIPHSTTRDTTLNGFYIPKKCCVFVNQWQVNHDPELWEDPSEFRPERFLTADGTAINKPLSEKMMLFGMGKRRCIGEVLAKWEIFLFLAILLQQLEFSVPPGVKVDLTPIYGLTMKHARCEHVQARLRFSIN

[10] = Stability in human plasma assessed as parent compound remaining at 100 uM and measured after 120 mins by LC-MS/MS analysis; type: ADME, cell-free; conditions: read-out: Stability

Sequence of Focal adhesion kinase 1 (Q05397 whole entry): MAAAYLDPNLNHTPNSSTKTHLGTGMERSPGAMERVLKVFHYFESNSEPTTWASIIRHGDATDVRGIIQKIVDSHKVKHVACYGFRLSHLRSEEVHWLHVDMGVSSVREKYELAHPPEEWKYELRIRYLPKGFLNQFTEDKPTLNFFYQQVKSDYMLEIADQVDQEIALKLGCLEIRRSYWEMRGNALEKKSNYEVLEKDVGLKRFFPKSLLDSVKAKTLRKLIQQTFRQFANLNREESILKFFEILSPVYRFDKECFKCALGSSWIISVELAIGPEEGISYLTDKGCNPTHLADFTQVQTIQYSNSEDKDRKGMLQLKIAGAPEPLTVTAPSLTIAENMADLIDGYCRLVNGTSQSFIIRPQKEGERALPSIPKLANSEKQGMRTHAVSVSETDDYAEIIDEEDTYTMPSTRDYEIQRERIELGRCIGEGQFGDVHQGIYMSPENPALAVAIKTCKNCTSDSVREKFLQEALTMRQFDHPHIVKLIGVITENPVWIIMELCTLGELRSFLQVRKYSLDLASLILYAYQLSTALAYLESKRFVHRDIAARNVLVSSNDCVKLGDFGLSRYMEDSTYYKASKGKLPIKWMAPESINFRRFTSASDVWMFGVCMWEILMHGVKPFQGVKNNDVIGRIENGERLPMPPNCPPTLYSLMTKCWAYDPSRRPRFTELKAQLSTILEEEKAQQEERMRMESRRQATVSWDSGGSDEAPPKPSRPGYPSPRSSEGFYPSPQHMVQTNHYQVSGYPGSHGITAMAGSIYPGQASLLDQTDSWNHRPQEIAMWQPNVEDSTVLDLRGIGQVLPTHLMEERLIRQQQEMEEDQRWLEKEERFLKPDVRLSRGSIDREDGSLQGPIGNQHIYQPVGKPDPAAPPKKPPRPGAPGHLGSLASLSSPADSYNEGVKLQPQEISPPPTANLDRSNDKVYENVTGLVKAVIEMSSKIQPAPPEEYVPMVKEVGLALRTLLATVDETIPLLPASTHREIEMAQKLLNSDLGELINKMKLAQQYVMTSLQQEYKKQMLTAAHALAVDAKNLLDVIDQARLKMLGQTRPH
Sequence of Serine/threonine-protein kinase PAK 4 (O96013 whole entry): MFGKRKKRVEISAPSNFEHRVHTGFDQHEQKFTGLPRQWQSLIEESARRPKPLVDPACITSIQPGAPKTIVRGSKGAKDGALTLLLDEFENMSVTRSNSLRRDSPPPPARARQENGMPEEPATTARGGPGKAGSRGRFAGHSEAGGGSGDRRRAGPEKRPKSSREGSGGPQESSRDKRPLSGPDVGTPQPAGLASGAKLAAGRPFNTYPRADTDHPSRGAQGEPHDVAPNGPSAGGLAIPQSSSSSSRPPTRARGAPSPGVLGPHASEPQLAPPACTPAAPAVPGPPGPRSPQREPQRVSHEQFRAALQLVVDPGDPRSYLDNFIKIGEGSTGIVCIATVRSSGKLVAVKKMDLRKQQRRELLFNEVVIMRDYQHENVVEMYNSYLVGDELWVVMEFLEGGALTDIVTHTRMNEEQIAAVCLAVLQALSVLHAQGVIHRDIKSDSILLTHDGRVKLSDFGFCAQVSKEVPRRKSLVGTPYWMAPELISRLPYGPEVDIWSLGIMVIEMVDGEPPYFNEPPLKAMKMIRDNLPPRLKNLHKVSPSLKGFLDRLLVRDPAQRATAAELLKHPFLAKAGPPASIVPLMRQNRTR
Sequence of High affinity nerve growth factor receptor (P04629 whole entry): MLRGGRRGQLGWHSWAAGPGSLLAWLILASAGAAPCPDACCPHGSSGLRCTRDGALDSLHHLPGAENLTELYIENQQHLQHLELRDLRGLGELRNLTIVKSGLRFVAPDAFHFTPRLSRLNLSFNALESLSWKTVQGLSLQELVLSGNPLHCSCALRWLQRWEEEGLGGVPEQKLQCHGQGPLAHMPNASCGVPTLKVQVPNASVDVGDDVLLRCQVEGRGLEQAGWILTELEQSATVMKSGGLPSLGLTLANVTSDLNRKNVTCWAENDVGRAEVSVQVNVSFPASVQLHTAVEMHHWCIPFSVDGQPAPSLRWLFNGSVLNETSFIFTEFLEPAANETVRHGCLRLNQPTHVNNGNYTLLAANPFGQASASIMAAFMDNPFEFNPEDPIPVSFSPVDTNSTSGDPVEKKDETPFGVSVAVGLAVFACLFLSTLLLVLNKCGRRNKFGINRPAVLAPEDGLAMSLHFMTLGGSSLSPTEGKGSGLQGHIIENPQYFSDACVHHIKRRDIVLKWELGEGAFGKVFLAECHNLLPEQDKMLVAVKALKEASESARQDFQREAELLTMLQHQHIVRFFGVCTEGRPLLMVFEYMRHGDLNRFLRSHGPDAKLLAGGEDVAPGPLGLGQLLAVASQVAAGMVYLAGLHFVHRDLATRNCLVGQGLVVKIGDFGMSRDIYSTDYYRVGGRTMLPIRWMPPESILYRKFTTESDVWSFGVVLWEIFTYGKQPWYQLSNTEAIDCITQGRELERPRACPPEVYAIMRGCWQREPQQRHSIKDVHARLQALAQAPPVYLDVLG
Sequence of CYP2C19 (P33261 whole entry): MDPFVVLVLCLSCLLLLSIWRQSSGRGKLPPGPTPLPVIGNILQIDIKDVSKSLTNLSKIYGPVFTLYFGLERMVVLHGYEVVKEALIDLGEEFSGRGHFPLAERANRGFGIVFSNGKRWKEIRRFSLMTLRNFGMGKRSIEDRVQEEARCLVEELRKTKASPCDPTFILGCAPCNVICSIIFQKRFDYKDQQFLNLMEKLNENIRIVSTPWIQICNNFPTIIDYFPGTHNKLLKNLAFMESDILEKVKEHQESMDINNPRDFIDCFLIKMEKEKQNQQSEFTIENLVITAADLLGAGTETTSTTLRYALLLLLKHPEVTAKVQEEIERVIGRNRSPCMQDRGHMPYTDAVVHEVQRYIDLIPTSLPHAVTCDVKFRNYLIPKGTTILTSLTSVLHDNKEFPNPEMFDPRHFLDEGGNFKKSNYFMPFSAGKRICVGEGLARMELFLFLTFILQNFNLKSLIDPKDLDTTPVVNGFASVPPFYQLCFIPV
Sequence of CYP3A4 (P08684 whole entry): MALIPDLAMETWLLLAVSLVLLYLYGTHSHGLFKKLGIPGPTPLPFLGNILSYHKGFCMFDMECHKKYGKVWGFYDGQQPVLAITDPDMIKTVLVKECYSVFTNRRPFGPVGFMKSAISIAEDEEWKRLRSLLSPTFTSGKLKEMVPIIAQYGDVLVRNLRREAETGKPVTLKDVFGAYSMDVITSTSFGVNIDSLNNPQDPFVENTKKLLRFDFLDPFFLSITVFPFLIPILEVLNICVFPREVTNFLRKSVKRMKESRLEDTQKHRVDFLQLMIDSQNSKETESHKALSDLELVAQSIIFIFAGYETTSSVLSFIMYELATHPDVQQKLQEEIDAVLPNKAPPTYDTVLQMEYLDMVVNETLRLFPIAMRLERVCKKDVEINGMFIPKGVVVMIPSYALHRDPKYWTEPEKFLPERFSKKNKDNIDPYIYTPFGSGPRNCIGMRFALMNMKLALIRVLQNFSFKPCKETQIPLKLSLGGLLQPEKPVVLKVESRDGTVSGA
Sequence of CYP2C9 (P11712 whole entry): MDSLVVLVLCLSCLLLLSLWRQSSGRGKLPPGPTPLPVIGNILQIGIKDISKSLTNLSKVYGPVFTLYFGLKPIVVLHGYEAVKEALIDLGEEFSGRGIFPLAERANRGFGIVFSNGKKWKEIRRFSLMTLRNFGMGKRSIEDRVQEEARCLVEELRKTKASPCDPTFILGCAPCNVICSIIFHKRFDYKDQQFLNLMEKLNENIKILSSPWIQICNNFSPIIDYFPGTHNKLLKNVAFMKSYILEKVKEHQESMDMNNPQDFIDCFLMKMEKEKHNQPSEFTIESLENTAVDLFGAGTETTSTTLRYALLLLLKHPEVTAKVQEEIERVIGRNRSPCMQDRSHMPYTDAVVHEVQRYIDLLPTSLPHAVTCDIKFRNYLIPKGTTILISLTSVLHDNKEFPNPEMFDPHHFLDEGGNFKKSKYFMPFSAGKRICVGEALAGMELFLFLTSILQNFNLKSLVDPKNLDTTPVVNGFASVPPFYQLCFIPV
Sequence of CYP2D6 (P10635 whole entry): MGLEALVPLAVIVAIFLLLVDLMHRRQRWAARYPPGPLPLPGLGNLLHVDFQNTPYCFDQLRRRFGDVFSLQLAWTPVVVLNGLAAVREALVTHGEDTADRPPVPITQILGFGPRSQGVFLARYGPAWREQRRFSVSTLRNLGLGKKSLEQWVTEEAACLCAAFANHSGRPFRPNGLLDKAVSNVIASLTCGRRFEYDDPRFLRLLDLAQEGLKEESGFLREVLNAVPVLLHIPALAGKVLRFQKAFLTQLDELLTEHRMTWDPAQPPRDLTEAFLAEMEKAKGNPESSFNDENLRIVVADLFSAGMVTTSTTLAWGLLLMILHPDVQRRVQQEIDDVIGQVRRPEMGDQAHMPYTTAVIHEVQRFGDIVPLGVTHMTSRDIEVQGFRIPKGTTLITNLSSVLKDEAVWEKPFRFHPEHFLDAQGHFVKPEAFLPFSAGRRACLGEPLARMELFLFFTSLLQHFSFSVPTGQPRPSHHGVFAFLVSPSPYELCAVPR

IC50 [1]: 205 nM
SMILES: O=C(c1cccc(Nc2n[nH]c3ncc(Cc4cc(F)ccc4F)cc23)c1)N1CCCC(O)C1 (configuration not stated)

IC50 [1]: 156 nM
SMILES: O=C(c1ccc(Nc2n[nH]c3ncc(Cc4cc(F)ccc4F)cc23)cc1)N1CCCC(O)C1 (configuration not stated)

IC50 [1]: > 100000 nM
SMILES: O=C(c1cccc(Nc2n[nH]c3ncc(Cc4ccc(F)c(F)c4)cc23)c1)N1CCOCC1

IC50 [1]: 980 nM
SMILES: O=C(c1ccc(Nc2n[nH]c3ncc(Cc4cc(F)ccc4F)cc23)cc1)N1CCOCC1

IC50 [1]: 1970 nM
SMILES: O=C(c1cccc(Nc2n[nH]c3ncc(Cc4cccc(F)c4F)cc23)c1)N1CCOCC1

IC50 [1]: 254 nM
SMILES: O=C(c1cccc(-c2n[nH]c3ncc(Cc4cc(F)ccc4F)cc23)c1)N1CCC(O)CC1

IC50 [1]: 2780 nM
SMILES: O=C(c1cccc(Nc2n[nH]c3ncc(Cc4ccc(F)cc4)cc23)c1)N1CCOCC1

IC50 [1]: 700 nM
SMILES: O=C(c1cccc(Nc2n[nH]c3ncc(Cc4cc(F)cc(F)c4)cc23)c1)N1CCOCC1

IC50 [2]: 1320 nM
IC50 [3]: > 100000 nM
IC50 (Focal adhesion kinase 1): > 100000 nM
SMILES: O=C(c1cccc(-c2n[nH]c3ncc(Cc4cc(F)ccc4F)cc23)c1)N1CCC[C@H](O)C1

IC50 [1]: 16700 nM
SMILES: O=C(c1cccc(Nc2n[nH]c3ncc(Cc4cccc(C(F)(F)F)c4)cc23)c1)N1CCOCC1

IC50 [4]: < 20 nM
IC50 (MCF7): > 40000 nM
SMILES: O=C(Nc1cnn2ccc(N3CCC[C@@H]3c3cc(F)ccc3F)nc12)N1CC[C@H](O)C1 [LAROTRECTINIB]
IC50 (KM12): 12 nM

IC50 [2]: 1650 nM
remaining at 0.5 h, 100 µM [5]: 88%
inhibition at 0.25 h, 10 µM (CYP3A4): 0%
IC50 [3]: > 100000 nM
half-life at 100 µM [6]: > 4.82 h
remaining at 10 min, 100 µM [7]: 104%
inhibition at 0.25 h, 10 µM (CYP2C9): 66.6%
remaining at 1 h, 100 µM [8]: 93.6%
inhibition at 0.25 h, 10 µM (CYP2D6): 25.8%
IC50 (Focal adhesion kinase 1): > 100000 nM
inhibition at 0.25 h, 10 µM (CYP2C19): 48.6%
remaining at 0 h, 100 µM [9]: 100%
inhibition at 0.25 h, 10 µM (CYP1A2): 16.6%
remaining at 2 h, 100 µM [10]: 89.1%
SMILES: O=C(c1cccc(-c2n[nH]c3ncc(Cc4cc(F)ccc4F)cc23)c1)N1CCCC(O)C1 (configuration not stated)

IC50 [2]: 690 nM
IC50 [3]: > 100000 nM
IC50 (Focal adhesion kinase 1): > 100000 nM
SMILES: O=C(c1cccc(-c2n[nH]c3ncc(Cc4cc(F)ccc4F)cc23)c1)N1CCC[C@@H](O)C1

IC50 [1]: 437 nM
SMILES: NC1CCN(C(=O)c2cccc(Nc3n[nH]c4ncc(Cc5cc(F)ccc5F)cc34)c2)CC1

IC50 [1]: 838 nM
SMILES: O=C(c1cccc(Nc2n[nH]c3ncc(Cc4c(F)cccc4F)cc23)c1)N1CCOCC1

IC50 [1]: 389 nM
SMILES: CN1CCN(C(=O)c2ccc(Nc3n[nH]c4ncc(Cc5cc(F)ccc5F)cc34)cc2)CC1

IC50 [1]: 660 nM
SMILES: O=C(c1cccc(Nc2n[nH]c3ncc(Cc4cc(F)c(F)c(F)c4)cc23)c1)N1CCOCC1

IC50 [1]: 409 nM
SMILES: O=C(c1ccc(Nc2n[nH]c3ncc(Cc4cc(F)ccc4F)cc23)cc1)N1CCNCC1
